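Protocol summary: plate cells (96-well), add compound at 5 concentrations, incubate 48 h, interpolate endpoints linearly. Here, GI50 denotes the concentration required for 50% inhibition of growth.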 Calls of active or inactive are those of the source. Cut-off read from the data, not from the text of the source: active = GI50 up to about 1.1 µM and inactive = higher.
Tests used:
Assay in all cases: NCI anticancer screen, dose series, 48 h
M19-MEL = test system: M19-MEL
DMS-114 = test system: DMS-114
DMS-273 = test system: DMS-273
TK-10 = test system: TK-10
LXFL 529 = test system: LXFL 529
Hs-578T = test system: Hs-578T
BT-549 = test system: BT-549

SMILES | GI50 (M19-MEL) | GI50 (DMS-114) | GI50 (DMS-273) | GI50 (TK-10) | GI50 (LXFL 529) | GI50 (Hs-578T) | GI50 (BT-549)
O=C1C=C(C2OC(CO)C(O)C2O)C(=O)N1 (stereo unspecified) | > 100 µM (inactive) | 54.8 µM (inactive) | > 100 µM (inactive) | – | – | – | –
CCOC(=O)c1csc(NC(=O)CCN2CCCC2)n1 | – | – | – | > 100 µM (inactive) | – | – | –
CC(=O)OCc1nnn2c1CCC2 | > 100 µM (inactive) | – | – | > 100 µM (inactive) | > 100 µM (inactive) | – | –
C/C(=N\Oc1cc(Cl)ncn1)c1ccccn1 | – | – | – | 59 µM (inactive) | – | 32.8 µM (inactive) | 85.3 µM (inactive)
COc1ccc(-c2cc3[nH]nc(N)c3c(=O)o2)cc1 | – | 72.4 µM (inactive) | > 100 µM (inactive) | > 100 µM (inactive) | > 100 µM (inactive) | – | –
COc1ccc(CN2C(=O)C(=O)N(C)C2=O)c2ccccc12 | – | – | – | > 10 µM (inactive) | – | 1.55 µM (inactive) | –

From ChEMBL document CHEMBL1201862, “PubChem BioAssay data set” (2004)
